Consider 28 compounds from ChEMBL document CHEMBL3870343, “Synthesis, screening and docking analysis of hispolon analogs as potential antitubercular agents” (2017).

In brackets after ≈: the same amount, converted by molar mass.

What all share (type): functional
Assay [1] has as its system Mycobacterium tuberculosis. The experiment in a line: Antitubercular activity against Mycobacterium tuberculosis H37Rv ATCC 27294 after 5 days by micro plate alamar blue assay. Conditions: H37Rv ATCC 27294, 120 h. A general note: The colour change of resazurin is a common sign of viable cells or microbes.
The test system of assay [2] is Mycobacterium tuberculosis. The experiment in a line: Antitubercular activity against Mycobacterium tuberculosis H37Rv ATCC 27294 assessed as ratio of compound or rifampicin MIC to MIC for compound in presence of rifampicin after 5 days by micro plate alamar blue assay.
Assay [3] deals with Mycobacterium tuberculosis. The experiment in a line: Antitubercular activity against Mycobacterium tuberculosis H37Rv ATCC 27294 assessed as ratio of compound or streptomycin MIC to MIC for compound in presence of streptomycin after 5 days by micro plate alamar blue assay.
The test system of assay [4] is Mycobacterium tuberculosis. The experiment in a line: Antitubercular activity against Mycobacterium tuberculosis H37Rv ATCC 27294 assessed as ratio of compound or pyrazinamide MIC to MIC for compound in presence of pyrazinamide after 5 days by micro plate alamar blue assay.
Assay [5] deals with Mycobacterium tuberculosis. The experiment in a line: Antitubercular activity against Mycobacterium tuberculosis H37Rv ATCC 27294 assessed as ratio of compound or ciprofloxacin MIC to MIC for compound in presence of ciprofloxacin after 5 days by micro plate alamar blue assay.

One may read the MIC as the smallest concentration in the dilution series that meets the test's criterion for growth inhibition. Turning to `COc1cc(/C=C/C(=O)CC(C)=O)ccc1OC(C)=O`, the minimum inhibitory concentration (MIC) in assay [1] is > 100 µg/mL.
On the same count and under the same terms, next, `C=C/C(C)=C/[C@@]1(C)SC(=O)C(C)=C1O` [THIOLACTOMYCIN]: 12.5 µg/mL (≈ 59.4 µM).
On to `COc1ccc(CCC(=O)CC(C)=O)cc1OC`, for which, in assay [1], it took 100 µg/mL (≈ 400 µM) to inhibit growth (MIC). This MIC lies about 8-fold higher than the previous one.
`CC(=O)CC(=O)CCc1ccc(O)c(O)c1` displayed an MIC in assay [1] of 3.12 µg/mL (≈ 14.1 µM).
On the same count and under the same terms, the same measure for `COc1cc(/C=C/C(=O)CC(C)=O)cc(OC)c1OC(C)=O`: > 100 µg/mL; for `NNC(=O)c1ccncc1` [ISONIAZID]: 0.8 µg/mL (≈ 5.83 µM).
In turn, `COc1ccc(CCC(=O)CC(C)=O)cc1` gave an MIC in assay [1] of 25 µg/mL (≈ 113 µM).
In assay [1], `CC(=O)CC(=O)CCc1ccc(O)cc1` gave an MIC of 1.6 µg/mL (≈ 7.76 µM). Moreover, the Ratio in assay [2] was found to be 0.062; in assay [3], 0.25; in assay [4], 0.25; in assay [5], 0.031.
In assay [1], `CO[C@H]1/C=C/O[C@@]2(C)Oc3c(C)c(O)c4c(O)c(c(/C=N/N5CCN(C)CC5)c(O)c4c3C2=O)NC(=O)/C(C)=C\C=C\[C@H](C)[C@H](O)[C@@H](C)[C@@H](O)[C@@H](C)[C@H](OC(C)=O)[C@@H]1C` [RIFAMPIN] returned an MIC of 1.6 µg/mL (≈ 1.94 µM).
Still for that read-out and setting: next, `COc1cc(/C=C/C(=O)CC(C)=O)ccc1O`: 25 µg/mL (≈ 107 µM); `COc1cc(/C=C/C(=O)CC(C)=O)cc(OC)c1OC`: 50 µg/mL (≈ 180 µM).
On the same count and under the same terms, next, `COc1ccc(/C=C/C(=O)CC(C)=O)c(OC)c1OC`: 100 µg/mL (≈ 359 µM).
The same measure, in the same setting: the same measure for `COc1cc(CCC(=O)CC(C)=O)ccc1O`: 6.25 µg/mL (≈ 26.5 µM).
Consider `COc1ccc(/C=C/C(=O)CC(C)=O)cc1OC`, for which, in assay [1], the MIC was determined as 100 µg/mL (≈ 403 µM). This MIC lies about 16-fold higher than the previous one.
Compound `COc1cc(CCC(=O)CC(C)=O)cc(OC)c1O` showed an MIC in assay [1] of 12.5 µg/mL (≈ 46.9 µM).
Still for that read-out and setting: next, `COc1ccc(CCC(=O)CC(C)=O)c(OC)c1OC`: > 100 µg/mL; `COc1cc(/C=C/C(=O)CC(=O)/C=C/c2ccc(O)c(OC)c2)ccc1O` [CURCUMIN]: > 100 µg/mL.
Regarding `CC(=O)CC(=O)/C=C/c1ccc(OC(C)=O)cc1`, it took 100 µg/mL (≈ 406 µM) to inhibit growth in assay [1] (MIC).
Consider `COc1cc(/C=C/C(=O)CC(C)=O)cc(OC)c1O`, for which the MIC in assay [1] is 50 µg/mL (≈ 189 µM).
Still for that read-out and setting: next, `CC(=O)CC(=O)/C=C/c1ccc(O)c(O)c1`: 25 µg/mL (≈ 114 µM).
Turning to `CC(=O)CC(=O)/C=C/c1ccc(O)cc1`, the MIC in assay [1] was 25 µg/mL (≈ 122 µM). Besides, the Ratio stood at 0.062 in assay [2], 0.125 in assay [3], 0.25 in assay [4] and 0.062 in assay [5].
As to `CN[C@@H]1[C@H](O[C@H]2[C@H](O[C@H]3[C@H](O)[C@@H](O)[C@H](N=C(N)N)[C@@H](O)[C@@H]3N=C(N)N)O[C@@H](C)[C@]2(O)C=O)O[C@@H](CO)[C@H](O)[C@H]1O` [STREPTOMYCIN], the MIC in assay [1] came to 6.25 µg/mL (≈ 10.7 µM).
Compound `CC[C@@H](CO)NCCN[C@@H](CC)CO` [ETHAMBUTOL] returned an MIC in assay [1] of 1.6 µg/mL (≈ 7.83 µM). Against the preceding compound, the MIC is about 3.9-fold lower.
Still for that read-out and setting: the same measure for `COc1ccc(/C=C/C(=O)CC(C)=O)cc1`: 50 µg/mL (≈ 229 µM); for `COc1cc(CCC(=O)CC(C)=O)cc(OC)c1OC(C)=O`: 100 µg/mL (≈ 324 µM).
For `COc1cc(OC)c(/C=C/C(=O)CC(C)=O)c(OC)c1`, the lowest concentration to inhibit growth in assay [1] (MIC) was 100 µg/mL (≈ 359 µM).
In assay [1], `NC(=O)c1cnccn1` [PYRAZINAMIDE] had an MIC of 3.12 µg/mL (≈ 25.4 µM).
Still for that read-out and setting: next, `O=C(O)c1cn(C2CC2)c2cc(N3CCNCC3)c(F)cc2c1=O` [CIPROFLOXACIN]: 3.12 µg/mL (≈ 9.43 µM).
